The results in this text go back to ChEMBL document CHEMBL1156972, “Discovery of 2-ureidophenyltriazines bearing bridged morpholines as potent and selective ATP-competitive mTOR inhibitors” (Bioorg Med Chem Lett, 2010).

Calls of active or inactive are those of the source. No cut-off for these calls is given here.

For assay [1], the target named is Serine/threonine-protein kinase mTOR (Rattus norvegicus, UniProt P42346). Description: Inhibition of rat brain mTOR assessed as p70S6K-GST protein phosphorylation after 30 mins by ELISA.
The nature of assay [2]: Inhibition of PI3K assessed as PIP3 level after 20 mins by HTRF assay. Background: In TR-FRET formats the signal depends on donor and acceptor labels being close together.
The nature of assay [3]: Selectivity ratio of IC50 for PI3K to IC50 for rat brain mTOR.
Another assay concerns LNCaP. Description: Antiproliferative activity against human LNCAP cells after 3 days by MTS assay. Format: functional, cell-based. The following applies: 72 h. For orientation: Formazan colour is commonly taken as a measure of viable cells.
Assay [4] has as its system U-87MG ATCC. Put plainly: Antitumor activity against human U87MG cells xenografted in nude mouse assessed as reduction in tumor volume at 12.5 to 25 mg/kg, po QD for 5 days measured after 9 days. In kind it is functional, organism-based. (Xenograft models place foreign cells or tissue in a host animal.)
The nature of assay [5]: Antitumor activity against human U87MG cells xenografted in nude mouse assessed as reduction in tumor volume at 5 mg/kg, iv QD for 5 days measured after 9 days relative to control. In kind it is functional, U-87MG ATCC. Also on record: scale not given: the % may be the effect or the level left.
For the next assay, the system named is MDA361. Description: Inhibition of PI3K in human MDA361 cells assessed as suppression of P-AKT T308 level at 0.0125 to 10 uM by immunoblotting. Format: cell-based.
In assay [6] the test system is Mus musculus. Put plainly: Inhibition of mTOR in human MDA361 cells xenografted in nude mouse assessed as suppression of TORC1 level at 10 mg/kg, iv after 8 hrs by immunoblotting. More on the design: dose 10 mg/kg. In kind it is functional, organism-based.
The subject of assay [7] is Mus musculus. Put plainly: Inhibition of mTOR in human MDA361 cells xenografted in nude mouse assessed as suppression of TORC2 level at 10 mg/kg, iv after 8 hrs by immunoblotting. Format: functional, organism-based. Also on record: dose 10 mg/kg.
Assay [8] concerns Mus musculus. Put plainly: Inhibition of PI3K signalling in human MDA361 cells xenografted in nude mouse assessed as suppression of PI3K/PDK1 level at 10 mg/kg, iv after 8 hrs by immunoblotting. In kind it is functional, organism-based. Also on record: dose 10 mg/kg.
For assay [9], the system named is Mus musculus. Description: Inhibition of mTOR in human MDA361 cells xenografted in nude mouse assessed as suppression of TORC1 level at 25 mg/kg, iv after 8 hrs by immunoblotting. Format: functional, organism-based. More on the design: dose 25 mg/kg.
Assay [10] has as its system Mus musculus. Put plainly: Inhibition of mTOR in human MDA361 cells xenografted in nude mouse assessed as suppression of TORC2 level at 25 mg/kg, iv after 8 hrs by immunoblotting. In kind it is functional, organism-based. Also on record: dose 25 mg/kg.
The subject of assay [11] is Mus musculus. Description: Inhibition of PI3K signalling in human MDA361 cells xenografted in nude mouse assessed as suppression of PI3K/PDK1 level at 25 mg/kg, iv after 8 hrs by immunoblotting. In kind it is functional, organism-based. Also on record: dose 25 mg/kg.
Assay [12] relates to U-87MG ATCC. Description: Antitumor activity against human U87MG cells xenografted in nude mouse assessed as reduction in tumor volume at 5 to 15 mg/kg, po QD for 5 days measured up to 10 days. Format: functional, organism-based.
Assay [13] in a line: Antitumor activity against human U87MG cells xenografted in nude mouse assessed as reduction in tumor volume at 10 mg/kg, po QD for 5 days measured after 8 days relative to control. Format: functional, U-87MG ATCC. Also on record: scale not given: the % may be the effect or the level left.

The IC50 is the concentration that gives 50% inhibition. For the compound `CN1CCN(c2ccc(NC(=O)Nc3ccc(-c4nc(N5C[C@H]6C[C@@H]5CO6)nc(N5C[C@H]6C[C@@H]5CO6)n4)cc3)cc2)CC1`, the values for the IC50 (in [1]; in [2]; with LNCaP) were 130 nM, 1820 nM and 550 nM, respectively. The Ratio IC50 in [3] turned out to be 14.

Turning to `CN1CCN(c2ccc(NC(=O)Nc3ccc(-c4nc(N5C6CCC5COC6)nc(N5C6CCC5COC6)n4)cc3)cc2)CC1`, in the assay on U-87MG ATCC [4], the outcome was Active. For the same compound, the Activity in [5] is listed as 31%. In addition, the inhibition entry in the assay on MDA361, with Mus musculus [6], in the assay with Mus musculus [7], in the assay with Mus musculus [9], with Mus musculus [10] and in the assay on Mus musculus [11] was “Active” throughout. In addition, the inhibition result in the assay with Mus musculus [8] was “inactive”.

As to `FC(F)c1nc2ccccc2n1-c1nc(N2CCOCC2)nc(N2CC3CCC(C2)O3)n1`, the half-inhibitory concentration (IC50) in assay [1] amounted to 60 nM; in assay [2], 24 nM; with LNCaP, 180 nM. The Ratio IC50 in assay [3] is 0.41.

Consider `O=C(Nc1ccncc1)Nc1ccc(-c2nc(N3CC4CCC(C3)O4)nc(N3CC4CCC(C3)O4)n2)cc1`, for which the IC50 is 0.5 nM in [1], 142 nM in assay [2] and 45 nM in the assay with LNCaP. In addition, the Ratio IC50 in assay [3] was 282.

In the case of `CN1CCN(c2ccc(NC(=O)Nc3ccc(-c4nc(N5CC6CCC(C5)O6)nc(N5CC6CCC(C5)O6)n4)cc3)cc2)CC1`, the figures for the IC50 (in assay [1]; in assay [2]; with LNCaP) were 1.7 nM, 87 nM and 2.3 nM, respectively. Besides, in assay [3], the Ratio IC50 came out at 51. The outcome with U-87MG ATCC [12] was Active. In addition, in [13], the Activity is 44%.

For `O=C(Nc1ccc(-c2nc(N3CC4CCC(C3)O4)nc(N3CC4CCC(C3)O4)n2)cc1)NC1CC1`, the figures for the IC50 (in assay [1]; in [2]; with LNCaP) were 2.6 nM, 2120 nM and 90 nM, respectively. For the same compound, in assay [3], the Ratio IC50 worked out at 802.

Consider `FC(F)c1nc2ccccc2n1-c1nc(N2CCOCC2)nc(N2CCOCC2)n1` [ZSTK-474], for which the IC50 in [1] was 45 nM; with LNCaP, 210 nM.

For `CN1CCN(c2ccc(NC(=O)Nc3ccc(-c4nc(N5CC6CCC(C5)O6)nc(N5C6CCC5COC6)n4)cc3)cc2)CC1`, the half-inhibitory concentration (IC50) in assay [1] was 2 nM; in assay [2], 150 nM; with LNCaP, less than 0.8 nM. Moreover, the Ratio IC50 in assay [3] was 75.

With `CNC(=O)Nc1ccc(-c2nc(N3CC4CCC(C3)O4)nc(N3CC4CCC(C3)O4)n2)cc1`, the 50% inhibitory concentration (IC50) worked out at 2.5 nM in assay [1], 680 nM in [2] and 190 nM with LNCaP. In [3], the Ratio IC50 amounted to 272.

In the case of `FC(F)c1nc2ccccc2n1-c1nc(N2CC3CCC(C2)O3)nc(N2CC3CCC(C2)O3)n1`, the figures for the IC50 (in [1]; in assay [2]; in the assay with LNCaP) were 44 nM, 124 nM and 680 nM, respectively. Besides, in [3], the Ratio IC50 turned out to be 2.8.

Consider `CCNC(=O)Nc1ccc(-c2nc(N3CC4CCC(C3)O4)nc(N3CC4CCC(C3)O4)n2)cc1`, for which the IC50 amounted to 2.8 nM in assay [1], 2690 nM in [2] and 180 nM in the assay on LNCaP. The Ratio IC50 in assay [3] is 961.

Regarding `CN1CCN(c2ccc(NC(=O)Nc3ccc(-c4nc(N5C[C@@H]6C[C@H]5CO6)nc(N5C[C@@H]6C[C@H]5CO6)n4)cc3)cc2)CC1`, the 50% inhibitory concentration (IC50) in assay [1] turned out to be 35 nM; in assay [2] it was 3440 nM. In [3], the Ratio IC50 turned out to be 98.
